{"source": "paper PMC11173382", "about": "“In Vitro Investigations into the Potential Drug Interactions of Pseudoginsenoside DQ Mediated by Cytochrome P450 and Human Drug Transporters” (Molecules, 2024)", "key": {"[1]": {"target": "T1, hMDR1(P-gp) (Homo sapiens, UniProt P08183)", "T1 construct": "host or cells: MDCKII-MDR1", "T1 sequence (P08183 whole entry)": "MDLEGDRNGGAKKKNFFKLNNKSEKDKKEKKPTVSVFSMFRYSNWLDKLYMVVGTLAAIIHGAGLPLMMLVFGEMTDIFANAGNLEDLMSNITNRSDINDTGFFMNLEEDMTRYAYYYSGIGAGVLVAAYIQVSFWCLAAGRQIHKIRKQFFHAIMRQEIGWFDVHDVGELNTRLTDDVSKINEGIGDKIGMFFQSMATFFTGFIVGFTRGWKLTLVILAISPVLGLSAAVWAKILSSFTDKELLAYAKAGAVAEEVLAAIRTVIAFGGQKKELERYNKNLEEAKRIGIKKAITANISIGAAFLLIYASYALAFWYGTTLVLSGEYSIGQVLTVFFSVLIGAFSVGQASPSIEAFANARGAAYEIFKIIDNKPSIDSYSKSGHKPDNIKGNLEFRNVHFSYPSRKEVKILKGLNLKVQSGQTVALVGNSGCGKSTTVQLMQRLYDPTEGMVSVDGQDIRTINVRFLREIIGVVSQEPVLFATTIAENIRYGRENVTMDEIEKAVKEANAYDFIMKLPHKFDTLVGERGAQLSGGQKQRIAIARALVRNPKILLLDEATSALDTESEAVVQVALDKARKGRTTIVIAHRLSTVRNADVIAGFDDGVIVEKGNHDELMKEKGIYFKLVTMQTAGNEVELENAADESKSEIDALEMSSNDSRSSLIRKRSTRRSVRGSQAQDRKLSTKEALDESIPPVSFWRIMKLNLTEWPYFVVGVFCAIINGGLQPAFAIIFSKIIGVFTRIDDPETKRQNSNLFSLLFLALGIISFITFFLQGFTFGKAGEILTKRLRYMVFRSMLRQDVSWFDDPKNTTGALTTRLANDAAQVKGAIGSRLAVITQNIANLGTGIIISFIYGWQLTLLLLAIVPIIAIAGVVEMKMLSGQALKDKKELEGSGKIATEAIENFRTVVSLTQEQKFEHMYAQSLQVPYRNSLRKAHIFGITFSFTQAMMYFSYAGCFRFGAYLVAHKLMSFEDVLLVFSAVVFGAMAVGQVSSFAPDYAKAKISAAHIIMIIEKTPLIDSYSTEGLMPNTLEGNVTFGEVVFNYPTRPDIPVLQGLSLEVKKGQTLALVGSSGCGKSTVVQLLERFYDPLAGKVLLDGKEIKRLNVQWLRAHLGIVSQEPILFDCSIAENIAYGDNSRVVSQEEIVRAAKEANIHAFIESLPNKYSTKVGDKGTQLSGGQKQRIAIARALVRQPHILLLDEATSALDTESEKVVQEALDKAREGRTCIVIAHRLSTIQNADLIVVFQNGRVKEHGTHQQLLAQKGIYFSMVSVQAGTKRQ", "assay": "MDCK II-MDR1 drug transport assay (3H-digoxin)", "type": "in vitro ADME", "settings": "for Transport activity of P-gp (main text: percentage inhibition): negative control = 100%", "excerpt": "(§1) Drug transporters mediate the cellular uptake and efflux of their substrates. Therefore, cell lines overexpressing a drug transporter can be utilized to investigate inhibitors of the transporter by assessing changes in substrate uptake. For each drug transporter, we selected a well-characterized inhibitor as the positive control. Radiolabeled substrates were used to indicate the decrease in transport efficiency when the drug transporters were inhibited by PDQ or the control inhibitors.\n(§2) The concentrations of the control drugs and the substrates were stated in the assay details. Working solutions of the control inhibitors, the radiolabeled substrates, and each dose of PDQ were prepared at 200 times (200×) more concentrated solutions with DMSO for further dilution.\n(§3) Transporter-overexpressed cell lines. Human organic anion transporter-overexpressed cell lines MDCKII-OAT1 and S2-OAT3, human organic anion transport polypeptide-overexpressed cell lines HEK293A-OATP1B1 and HEK293A-OATP1B3, human organic cation transporter 2-overexpressed cell line S2-OCT2, and human multi-drug resistance protein MDR1 (or P-gp)-overexpressed cell line MDCKII-MDR1 were gifts from Japan Fuji Biomedical Co., Ltd. (Fuji, Shizuoka Prefecture, Japan). Breast cancer resistance protein-overexpressed vesicles (sf9-BCRP vesicle) were purchased from GenoMembrane Co., Ltd. (Yokohama, Kanagawa, Japan).\nAll reagents were pre-warmed to 37 °C. […] The plate was incubated for 20 min. […] Each sample was replicated three times (N = 3).\n(§4) In = [100 × (U − U0)/(Uc − U0)]%(3)\nThe results were expressed as mean ± standard deviation (SD) and analyzed with GraphPad Prism 8.0 software (CA, USA). The IC50 of PDQ was curve-fitted with the FORECAST function."}, "[2]": {"target": "T2, hBCRP (Homo sapiens, UniProt Q9UNQ0)", "T2 construct": "purchased GenoMembrane DNAIG03; host or cells: Sf9 insect cell membrane vesicles", "T2 sequence (Q9UNQ0 1-655)": "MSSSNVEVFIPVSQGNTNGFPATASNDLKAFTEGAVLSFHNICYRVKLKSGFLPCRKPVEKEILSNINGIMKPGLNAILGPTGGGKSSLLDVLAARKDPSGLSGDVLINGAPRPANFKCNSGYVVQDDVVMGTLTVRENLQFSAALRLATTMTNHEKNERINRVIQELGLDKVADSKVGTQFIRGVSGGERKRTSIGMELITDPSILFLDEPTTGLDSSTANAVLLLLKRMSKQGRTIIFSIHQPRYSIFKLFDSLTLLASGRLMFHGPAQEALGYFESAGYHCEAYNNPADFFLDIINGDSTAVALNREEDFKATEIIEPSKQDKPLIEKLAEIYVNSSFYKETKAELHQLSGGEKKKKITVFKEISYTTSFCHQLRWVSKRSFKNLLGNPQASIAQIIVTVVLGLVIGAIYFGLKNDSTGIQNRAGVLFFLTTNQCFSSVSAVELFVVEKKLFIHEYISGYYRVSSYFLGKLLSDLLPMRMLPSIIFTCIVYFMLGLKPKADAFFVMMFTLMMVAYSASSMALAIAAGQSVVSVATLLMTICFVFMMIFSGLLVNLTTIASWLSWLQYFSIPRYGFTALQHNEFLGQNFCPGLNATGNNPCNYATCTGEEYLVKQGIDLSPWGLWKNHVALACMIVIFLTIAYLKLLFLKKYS", "assay": "Vesicular transport assay with sf9-BCRP vesicles (3H-ES)", "type": "in vitro ADME", "settings": "for Transport activity of BCRP (main text: percentage inhibition): negative control = 100%", "excerpt": "as §1, §2, §3\nVesicular transport assay with the sf9-BCRP model. Vesicular transport assay was conducted to measure the interaction between PDQ and the efflux transporter BCRP, using sf9-BCRP vesicles (Cat. No, DNAIG03, GenoMembrane, Yokohama, Kanagawa, Japan). The modulation of ^3H-ES transport reflects the level of the drug-transporter interaction.\nThe MgATP working solution was prepared by diluting the 200 mM stock solution with the transport buffer, while the reduced glutathione solution was made by dissolving glutathione (0.615 g) in 8 mL deionized water and adjusting the pH to 6.8 with 2M NaOH. The drug solution in the reaction mix was replaced with […] of transport buffer as the negative control mix. These reaction mixes were pre-incubated at 37 °C before use. All reagents were thawed on ice, and deionized water was used for the preparation.\nThe membrane suspension was gently mixed with ice-cold transport buffer and aliquoted to 1.5 mL centrifuge tubes on ice. Each tube contained […] of vesicles ([…] BCRP) and […] of transport buffer. The vesicle-containing tubes were pre-incubated at 37 °C for 5 min. Then, the reaction mixes were added to the tubes to initiate the assay. To terminate the reaction after 5 min, […] of washing buffer (40 mM MOPS-Tris and 70 mM KCl) was added to each tube on ice. The samples were then transferred to the filter and filtered. The filters were washed with 5 mL of cold washing buffer three times. Subsequently, the filters were placed at the bottom of the counting vials, and the scintillation cocktail was added. The filter and the cocktail were vigorously vortexed to mix. The remaining radiation in the samples was then measured with the scintillation counter. Each sample was replicated three times (N = 3).\nas §4\nThe results were expressed as mean ± standard deviation (SD) and analyzed with GraphPad Prism 8.0 software (CA, USA). The IC50 of PDQ was curve-fitted with the FORECAST function. Statistical significance was calculated using a two-tailed test, and a p value < 0.05 was considered as significant."}}}
{"smiles": "CC(C)(O)[C@@H]1CC[C@@](C)([C@H]2CC[C@]3(C)[C@@H]2[C@H](O)C[C@@H]2[C@@]4(C)CC[C@H](O)C(C)(C)[C@@H]4CC[C@]23C)O1", "note": "[PDQ, (20S,24S)-dammar-20,24-epoxy-3β, 12β, 25-triol]", "values": [{"measurement": "IC50", "setting": "[1]; MDCKII-MDR1, 25 μM 3H-digoxin, 15 min", "value": 410, "unit": "nM"}, {"measurement": "Transport activity of P-gp (main text: percentage inhibition)", "setting": "[1]; inhibitor 0.1 μM", "value": "57.5±7.1", "unit": "%"}, {"measurement": "Transport activity of P-gp (main text: percentage inhibition)", "setting": "[1]; inhibitor 0.3 μM", "value": "57.0±9.2", "unit": "%"}, {"measurement": "Transport activity of P-gp (main text: percentage inhibition)", "setting": "[1]; inhibitor 1 μM", "value": "30.8±6.4", "unit": "%"}, {"measurement": "Transport activity of P-gp (main text: percentage inhibition)", "setting": "[1]; inhibitor 3 μM", "value": "23.2±7.1", "unit": "%"}, {"measurement": "DPM (3H-ES transport by BCRP)", "setting": "[2]; inhibitor 0.1 μM", "value": "5303.7±176.6", "unit": "DPM"}, {"measurement": "Transport activity of BCRP (main text: percentage inhibition)", "setting": "[2]; inhibitor 0.1 μM", "value": "96.1±3.2", "unit": "%"}, {"measurement": "DPM (3H-ES transport by BCRP)", "setting": "[2]; inhibitor 0.3 μM", "value": "2995.3±288.8", "unit": "DPM"}, {"measurement": "Transport activity of BCRP (main text: percentage inhibition)", "setting": "[2]; inhibitor 0.3 μM", "value": "54.3±5.2", "unit": "%"}, {"measurement": "DPM (3H-ES transport by BCRP)", "setting": "[2]; inhibitor 1 μM", "value": "2788.3±479.5", "unit": "DPM"}, {"measurement": "Transport activity of BCRP (main text: percentage inhibition)", "setting": "[2]; inhibitor 1 μM", "value": "50.5±8.7", "unit": "%"}, {"measurement": "DPM (3H-ES transport by BCRP)", "setting": "[2]; inhibitor 3 μM", "value": "2352.7±355.1", "unit": "DPM"}, {"measurement": "Transport activity of BCRP (main text: percentage inhibition)", "setting": "[2]; inhibitor 3 μM", "value": "42.7±6.4", "unit": "%"}, {"measurement": "DPM (3H-ES transport by BCRP)", "setting": "[2]; inhibitor 10 μM", "value": "1997.3±185.1", "unit": "DPM"}, {"measurement": "Transport activity of BCRP (main text: percentage inhibition)", "setting": "[2]; inhibitor 10 μM", "value": "36.2±3.4", "unit": "%"}, {"measurement": "DPM (3H-ES transport by BCRP)", "setting": "[2]; inhibitor 30 μM", "value": "1911.0±179.5", "unit": "DPM"}, {"measurement": "IC50", "setting": "[2]; sf9-BCRP vesicles, 3H-ES 1 µM, 5 min", "value": 1080, "unit": "nM"}]}
